Key:
Format in all cases: physicochemical
[1] = Stability of the phantom solutions at +2-8° C. (residual absorbance, UV/VIS)
Description: Several stability studies were performed to evaluate the effect of different buffers, additives such as excipients or preservatives, and storage conditions on the dye formulation. In particular the stability of the formulations after storage at +2-8° C. in a refrigerator was firstly investigated.
(§1) Stability was measured as reduction in the absorbance at the maximum wavelength of the dye acquired using a UV/VIS spectrophotometer, denoting reduction of the dye monomer content in solution. All the results were then reported as residual percentage vs the baseline (T=0), wherein at time=0 the percentage is 100%. A decrease in absorbance is associated with the reduction of the concentration of the dye in the formulation buffer, indicating low stability and degradation of the main chromophore species.
In the Tables below the residual absorbance of different dyes, i.e. […] and S0456, in some representative organic buffering solutions is reported after storage of the formulations at +2-8° C.

[2] = Stability of the phantom solutions at +2-8° C. in the presence of additives (residual absorbance); details: +2-8° C.
Description: as §1
The effect of the presence of an additive on the stability of the formulations of the invention has been also investigated.
The preparation of the above buffers is described below:
50 mM HEPES (pH 7.4)+0.04% Tween 20: to prepare 100 mL of buffering solution, 1.19 g of HEPES were dissolved in 80 mL of water; 40 μL of Tween 20 were added and the pH was adjusted to 7.4 with 0.1 M HCl. The buffering solution was then brought to 100 mL volume with water and filtered on 0.22 μm membrane in sterile conditions.
50 mM HEPES (PH 7.4)+0.02% Sodium Azide: to prepare 100 mL of buffering solution, 1.19 g of HEPES and 20 mg of Sodium Azide were dissolved in 80 mL of water and the pH was adjusted to 7.4 with 0.1 M HCl. The buffering solution was then brought to 100 mL volume with water and filtered on 0.22 μm membrane in sterile conditions.
10 mM HEPES (PH 7.0)+10% EtOH: to prepare 100 mL of buffering solution, 0.24 g of HEPES were dissolved in 80 mL of water and the pH was adjusted to 7.0 with 0.1 M HCl.
Then, 10 mL of 100% Ethanol were added. The buffering solution was then brought to 100 mL volume with water and filtered on 0.22 μm membrane in sterile conditions.
Analogous solutions were prepared with the same procedure for MOPS, BES and TRICINE buffers.

[3] = Stability of the phantom solutions at +2-8° C. during long-term storage (residual absorbance); details: 3 μM dye in HEPES 10 mM, pH 7.0, +2-8° C. protected from light
Description: Stability was measured as reduction in the absorbance at the maximum wavelength of the dye acquired using a UV/VIS spectrophotometer, denoting reduction of the dye monomer content in solution. […] A decrease in absorbance is associated with the reduction of the concentration of the dye in the formulation buffer, indicating low stability and degradation of the main chromophore species. The stability of the formulations under long-term storage conditions was also investigated. In particular, samples of 3 μM IRDye […] and 3 μM IRDye 800BK dissolved in HEPES buffer were stored refrigerated at +2-8° C. protected from light exposure for at least 6 months. For the long-term stability study at 2-8° C., samples of.

Question: Which results are given for `CC1(C)C(/C=C/C2=C(Oc3ccc(S(=O)(=O)O)cc3)C(=C/C=C3\N(CCCCS(=O)(=O)[O-])c4ccc(S(=O)(=O)O)cc4C3(C)C)/CCC2)=[N+](CCCCS(=O)(=O)O)c2ccc(S(=O)(=O)O)cc21` [IRDye 800BK]?
Answer: Residual absorbance percentage ([1]; 3 μM dye in BES buffer 10 mM, pH 7.0, +2-8° C., 1 week): 97.6%; Residual absorbance percentage ([1]; 3 μM dye in BES buffer 10 mM, pH 7.0, +2-8° C., 2 weeks): 94.8%; Residual absorbance percentage ([1]; 3 μM dye in BES buffer 10 mM, pH 7.0, +2-8° C., 4 weeks): 92.0%; Residual absorbance percentage ([1]; 3 μM dye in BES buffer 10 mM, pH 7.4, +2-8° C., 1 week): 97.6%; Residual absorbance percentage ([1]; 3 μM dye in BES buffer 10 mM, pH 7.4, +2-8° C., 2 weeks): 94.4%; Residual absorbance percentage ([1]; 3 μM dye in BES buffer 10 mM, pH 7.4, +2-8° C., 4 weeks): 91.5%; Residual absorbance percentage ([1]; 3 μM dye in BES buffer 10 mM, pH 7.8, +2-8° C., 1 week): 96.4%; Residual absorbance percentage ([1]; 3 μM dye in BES buffer 10 mM, pH 7.8, +2-8° C., 2 weeks): 92.4%; Residual absorbance percentage ([1]; 3 μM dye in BES buffer 10 mM, pH 7.8, +2-8° C., 4 weeks): 88.1%; Residual absorbance percentage ([1]; 3 μM dye in BES buffer 50 mM, pH 7.0, +2-8° C., 1 week): 96.8%; Residual absorbance percentage ([1]; 3 μM dye in BES buffer 50 mM, pH 7.0, +2-8° C., 2 weeks): 93.5%; Residual absorbance percentage ([1]; 3 μM dye in BES buffer 50 mM, pH 7.0, +2-8° C., 4 weeks): 90.0%; Residual absorbance percentage ([1]; 3 μM dye in BES buffer 50 mM, pH 7.4, +2-8° C., 1 week): 97.2%; Residual absorbance percentage ([1]; 3 μM dye in BES buffer 50 mM, pH 7.4, +2-8° C., 2 weeks): 94.0%; Residual absorbance percentage ([1]; 3 μM dye in BES buffer 50 mM, pH 7.4, +2-8° C., 4 weeks): 90.5%; Residual absorbance percentage ([1]; 3 μM dye in BES buffer 50 mM, pH 7.8, +2-8° C., 1 week): 95.9%; Residual absorbance percentage ([1]; 3 μM dye in BES buffer 50 mM, pH 7.8, +2-8° C., 2 weeks): 91.7%; Residual absorbance percentage ([1]; 3 μM dye in BES buffer 50 mM, pH 7.8, +2-8° C., 4 weeks): 89.6%; Residual absorbance percentage ([1]; 3 μM dye in MOPS buffer 10 mM, pH 7.0, +2-8° C., 1 week): 97.9%; Residual absorbance percentage ([1]; 3 μM dye in MOPS buffer 10 mM, pH 7.0, +2-8° C., 2 weeks): 95.7%; Residual absorbance percentage ([1]; 3 μM dye in MOPS buffer 10 mM, pH 7.0, +2-8° C., 4 weeks): 93.7%; Residual absorbance percentage ([1]; 3 μM dye in MOPS buffer 10 mM, pH 7.4, +2-8° C., 1 week): 97.9%; Residual absorbance percentage ([1]; 3 μM dye in MOPS buffer 10 mM, pH 7.4, +2-8° C., 2 weeks): 95.3%; Residual absorbance percentage ([1]; 3 μM dye in MOPS buffer 10 mM, pH 7.4, +2-8° C., 4 weeks): 93.6%; Residual absorbance percentage ([1]; 3 μM dye in MOPS buffer 10 mM, pH 7.8, +2-8° C., 1 week): 96.9%; Residual absorbance percentage ([1]; 3 μM dye in MOPS buffer 10 mM, pH 7.8, +2-8° C., 2 weeks): 94.1%; Residual absorbance percentage ([1]; 3 μM dye in MOPS buffer 10 mM, pH 7.8, +2-8° C., 4 weeks): 91.1%; Residual absorbance percentage ([1]; 3 μM dye in MOPS buffer 50 mM, pH 7.0, +2-8° C., 1 week): 97.4%; Residual absorbance percentage ([1]; 3 μM dye in MOPS buffer 50 mM, pH 7.0, +2-8° C., 2 weeks): 94.6%; Residual absorbance percentage ([1]; 3 μM dye in MOPS buffer 50 mM, pH 7.0, +2-8° C., 4 weeks): 92.0%; Residual absorbance percentage ([1]; 3 μM dye in MOPS buffer 50 mM, pH 7.4, +2-8° C., 1 week): 97.5%; Residual absorbance percentage ([1]; 3 μM dye in MOPS buffer 50 mM, pH 7.4, +2-8° C., 2 weeks): 94.9%; Residual absorbance percentage ([1]; 3 μM dye in MOPS buffer 50 mM, pH 7.4, +2-8° C., 4 weeks): 92.6%; Residual absorbance percentage ([1]; 3 μM dye in MOPS buffer 50 mM, pH 7.8, +2-8° C., 1 week): 97.0%; Residual absorbance percentage ([1]; 3 μM dye in MOPS buffer 50 mM, pH 7.8, +2-8° C., 2 weeks): 94.0%; Residual absorbance percentage ([1]; 3 μM dye in MOPS buffer 50 mM, pH 7.8, +2-8° C., 4 weeks): 91.3%; Residual absorbance percentage ([2]; 3 μM dye in BES (10 mM, pH 7.0) +10% EtOH, 1 week): 99.2%; Residual absorbance percentage ([2]; 3 μM dye in BES (10 mM, pH 7.0) +10% EtOH, 2 weeks): 98.2%; Residual absorbance percentage ([2]; 3 μM dye in BES (10 mM, pH 7.0) +10% EtOH, 4 weeks): 97.2%; Residual absorbance percentage ([2]; 3 μM dye in HEPES (10 mM, pH 7.0) +10% EtOH, 1 week): 97.8%; Residual absorbance percentage ([2]; 3 μM dye in HEPES (10 mM, pH 7.0) +10% EtOH, 2 weeks): 97.2%; Residual absorbance percentage ([2]; 3 μM dye in HEPES (10 mM, pH 7.0) +10% EtOH, 4 weeks): 95.1%; Residual absorbance percentage ([2]; 3 μM dye in MOPS (10 mM, pH 7.0) +10% EtOH, 1 week): 97.6%; Residual absorbance percentage ([2]; 3 μM dye in MOPS (10 mM, pH 7.0) +10% EtOH, 2 weeks): 95.8%; Residual absorbance percentage ([2]; 3 μM dye in MOPS (10 mM, pH 7.0) +10% EtOH, 4 weeks): 92.9%; Residual absorbance percentage ([3]; 1 month): 99.1%; Residual absorbance percentage ([3]; 3 months): 94.1%; Residual absorbance percentage ([3]; 6 months): 93.3%

Reference: patent US20240368406A1, “STABLE LIQUID PHANTOM FOR NEAR-INFRARED FLUORESCENCE VERIFICATION” (SURGVISION GMBH, priority 2021, published 2024)
